Data set [1] has as its system rat model of gastroesophageal reflux disease. Description: Effect on esophagus lesion in rat model of gastroesophageal reflux disease. As to conditions: 10 mg/kg oral in 0.5% CMC, 1 h before reflux induction; esophagus examined 6 h after operation; SD male rats. In kind it is in vivo. The text has this: In order to determine the therapeutic effect on acute/chronic gastroesophageal reflux disease by the inventive Lonicerae Flos fraction or the compound represented by Formula 1 or 2, the method for measuring the therapeutic effect on gastroesophageal reflux disease (Nakamura K et al; Jpn. J. Pharmacol., 32(3), 445-456, 1982: Okabe S, et al; Jpn. J. Pharmacol., 69(4), 317-323, 1995) was applied to the present experiments.
In order to determine the therapeutic effect of the inventive Lonicerae Flos extract, the inventive Lonicerae Flos fraction, or the compound represented by Formula 1 or 2 in a rat model of gastroesophageal reflux disease, Spraugue-Dawley(SD)-based male rats aged 7 weeks were fasted for 24 hours and supplied with water in a sufficient amount. The rats were weighed, and were orally administered with omeprazole (Sigma-Aldrich) as a control drug and with Lonicerae Flos extract/fraction as a test drug, which are suspended in a 0.5% CMC (Carboxymethyl cellulose) solution, one hour before induction of reflux. For reflux induction, the abdomen of the rat was opened, and a pylorus region between stomach and duodenum was ligated. Then, a stomach-esophagus sphincter between esophagus and stomach was injured by longitudinal incision of 1 cm so that gastric acid can be flowed backward due to abnormal relaxation of the sphincter. Also, a transition zone between forestomach and glandular portion was ligated by thread, and the abdomen was sutured by cotton thread. 6 hours after the completion of the operation, inhalation anesthesia was performed, and the esophagus was extracted. Then, the size of an esophagus lesion and the extent of esophagitis were observed. In Table 1, the esophagus lesion inhibition ratio (%) of a test group administered with the inventive test material, with respect to a control group, is noted.

For data set [2], the system named is Sialic acid of esophagus mucous membrane. In words: Amount of sialic acid in esophagus tissue. Format: in vivo, rat. As to conditions: esophagus tissue of reflux rats; for Sialic acid: 10 mg/kg, normal group 125.2, control group 95.2; for content of sialic acid compared to that of a control group: doses as in Table 3. As for the experimental part: (§1) On the Lonicerae Flos extract, the Lonicerae Flos fraction, or a compound isolated from the fraction (3,5-di-O-caffeoylquinic acid or 4,5-di-O-caffeoylquinic acid), having a therapeutic effect in a rat model of gastroesophageal reflux disease, the amounts of Hexosamine and Sialic acid constituting esophagus mucous membrane of esophagus tissue were measured.
Esophagus tissues of all test groups, obtained from <Experimental Example 1>, were immersed in ethanol, and then left in acetone for 2 days, and in ether for 1 day, followed by cleaning and drying. The test sample was weighed, added with 5 ml of 0.1N H2SO4 solution, and hydrolyzed by being heated at 80° C. for 1 hour. Then, the resultant product was cooled at room temperature, and filtered. 0.2 ml of filtrate was mixed with 0.1 ml of 0.2M periodate solution, and left at room temperature for 20 minutes. Then, the resultant solution was mixed with 1 ml of 10% arsenite solution until a yellowish brown color disappeared. 3 ml of 0.6% TBA solution was added thereto, followed by mixing. The resultant product was covered with a cap, and heated at 100° C. for 15 minutes, cooled, and left in a cool bath for 5 minutes, followed by cen- trifugation at 3,000 rpm for 10 minutes. A supernatant was collected, and its absorbency was measured at 549nm. From a calibration curve obtained by using N-acetylneuraminic acid, the content of Sialic acid was calculated.

In another data set the test system is TNF-α. In words: TNF-alpha level in esophagus tissue (ELISA), anti-inflammatory effect. In kind it is in vivo, rat. As to conditions: 10 mg/kg; for inflammation inhibition ratio: calculated from TNF-alpha of test, control and normal groups; for TNF-alpha: esophagus tissue of reflux rats, normal group 120.3, control group 325.2. As for the experimental part:
On the Lonicerae Flos extract, the Lonicerae Flos fraction, or a compound isolated from the fraction (3,5-di-O-caffeoylquinic acid or 4,5-di-O-caffeoylquinic acid), having a therapeutic effect in a rat model of gastroesophageal reflux disease, in order to measure an anti-inflammatory effect within esophagus tissue, a level of Tumor necrosis factor-alpha(TNF-α) playing an important role in inflammatory disease mechanism was measured within esophagus tissue of a rat (Nippon Rinsho, 68(5), 819-822, 2010). As a kit for this measurement, rat TNF-α ELISA kit (Cat No:88-7340, eBioscience) was used. Each of esophagus tissues of all test groups, obtained from <Experimental Example 1>was introduced into homogenizing buffer (10×)(pH 7.4: 1.15% KCl, 50 mM Tris-HCl, 1 mM EDTA), followed by grinding by a homogenizer. Then, after centrifugation at 3,000 rpm or more for 10 minutes, the homogenized tissue liquid (supernatant) was separated, and then stored in a deep freezer for the use in the experiment. After all antigen-antibody reactions were completed, the absorbency was measured by ELISA Reader (BIORAD) at 450 nm, and then the amount of TNF-α in esophagus tissue was expressed by using a reference curve of absorbency. The inflammation inhibition ratio (%) of a test material was calculated by the following equation. Also, the anti-inflammatory effect by the Lonicerae Flos extract in a rat model of gastroesophageal reflux disease is noted in Table 2.
Inflammation inhibition ratio (%)=1−((test group-normal group)/(control group-normal group))×100

Data set [3] has as its system lipid peroxidation of esophagus tissue. In words: Lipid peroxide (malondialdehyde) of esophagus tissue in rat model of gastroesophageal reflux disease. The settings on record: esophagus mucous membrane from Experimental Example 1 (10 mg/kg oral); malondialdehyde by TBA, 532 nm. Format: in vivo. As for the experimental part: A test for finding out the inhibition of lipid peroxidation by the inventive Lonicerae Flos extract, the inventive Lonicerae Flos fraction, or a compound isolated from the fraction (3,5-di-O-caffeoylquinic acid or 4,5-di-O-caffeoylquinic acid) was carried out. the esophagus mucous membrane extracted in Experimental Example 1 was taken out, and added in 1 ml of tris-hydrochloric acid buffer solution (pH 7.0), followed by ultrasonic grinding. After centrifugation (600×g, 4° C.) for 5 minutes, 0.3 ml of supernatant was added with 0.9 ml of trichloroacetic acid (8%). Then, after centrifugation (10,000×g, 4° C.) for 5 minutes, 1 ml of supernatant was added with 0.25 ml of TBA(1%), and then with 2 ml of n-butanol. Then, after centrifugation (3,000×g , 4° C.) for 5 minutes, on 1 ml of butanol fraction, the absorbency was measured at 532 nm. As a reference material, malonaldehyde bis-dimethyl acetal was used. The result was expressed as nmol/mg protein, and protein quantitative analysis was carried out by Bradford assay.

Data set [4] has as its system Hexosamine of esophagus mucous membrane. In words: Amount of hexosamine in esophagus tissue. Format: in vivo, rat. As to conditions: esophagus tissue of reflux rats; for Hexosamine: 10 mg/kg, normal group 1101.3, control group 925.3; for content of hexosamine compared to that of a control group: doses as in Table 3. As for the experimental part: as §1
Esophagus tissues of all test groups, obtained from <Experimental Example 1>, were immersed in ethanol, and then left in acetone for 2 days, and in ether for 1 day, followed by cleaning and drying. The test sample was weighed, added with 5 ml of 4N HCl solution, and hydrolyzed by being heated at 100° C. for 9 hours. Then, the resultant product was cooled at room temperature, and filtered. 0.5 ml of filtrate was added with 0.5 ml of 4N NaOH solution for neutralization, and then added with 1 ml of acetylacetone solution, followed by shaking. Then, the resultant product was heated at 100° C. for 20 minutes, and cooled, and then added with 5 ml of isoamylalcohol, followed by shaking for 2 minutes. After centrifugation at 3,000 rpm for 10 minutes, 2 ml of supernatant was collected. The supernatant was added with 0.5 ml of a color agent, and left for 15 minutes, and then its absorbency was measured at 530 nm. From a calibration curve obtained by using Glucosamine, the content of hexosamine was calculated.

For data set [5], the system named is SPF SD-based female/male rats. Description: Toxicity test of acute oral administration. As to conditions: single oral dose 1.0 g/kg or 2.0 g/kg in 0.5% CMC; 5 female and 5 male SD rats; autopsy after 7 days; safe up to 2.0 g/kg. In kind it is in vivo. The protocol:
By applying the Lonicerae Flos extract of Example 1, fractions of Examples 4 and 5, and 3,5-di-O-caffeoylquinic acid and 4,5-di-O-caffeoylquinic acid from Example 6, to SPF (specific pathogen free) SD-based female/male rats aged 6 weeks, an acute toxicity test was carried out.
Female 5 rats and male 5 rats of each test group were orally administered with the test materials from Examples in a dose of 1.0 g/kg or 2.0 g/kg. The test materials were suspended in 0.5% CMC (Carboxymethyl cellulose) solution before the administration. When the test materials were administered, mortality, clinical symptoms, and weight changes of animals were observed. 7 days after the administration, through autopsy, a hematologic examination and a blood chemical test were carried out. Then, with the naked eye, it was observed if there was abnormality in abdominal cavity organs and thoracic cage organs. […] Also, through weight measurement, a blood test, a blood chemical test, and autopsy results, an abnormal change was not observed.

Consider `O=C(/C=C/c1ccc(O)c(O)c1)O[C@H]1[C@H](O)C[C@](O)(C(=O)O)C[C@H]1OC(=O)/C=C/c1ccc(O)c(O)c1` [4,5-di-CQA, 4,5-di-O-caffeoylquinic acid], for which the “esophagus lesion inhibition ratio with respect to control group” value (“esophagus lesion inhibition ratio” below) in data set [1] is listed as 81%. Besides, in data set [2], the Sialic acid was 148.1 μg/100 mg dry tissue and the “content of sialic acid compared to that of a control group” value is given as “significantly increased”. In the data set with TNF-α, the inflammation inhibition ratio is listed as 85.5% and the TNF-alpha was determined as 150.1 pg/mg Tissue weight. Moreover, the “lipid peroxidation inhibiting ratio” value in data set [3] amounted to 50.2%. Further, in data set [4], the Hexosamine worked out at 1380.2 μg/100 mg dry tissue and the “content of hexosamine compared to that of a control group” value is recorded as “significantly increased”.
As for `O=C(/C=C/c1ccc(O)c(O)c1)OC1CC(O)(C(=O)O)CC(OC(=O)/C=C/c2ccc(O)c(O)c2)C1O` (centres unmarked) [3,5-di-CQA, 3,5-di-O-caffeoylquinic acid], the “esophagus lesion inhibition ratio” value in data set [1] was determined as 90%. Moreover, in data set [2], the Sialic acid is 155.3 μg/100 mg dry tissue and the “content of sialic acid compared to that of a control group” value is reported as “significantly increased”. In the data set with TNF-α, the inflammation inhibition ratio is 87.8% and the TNF-alpha stood at 145.3 pg/mg Tissue weight. The “lipid peroxidation inhibiting ratio” value in data set [3] was found to be 49.1%. In data set [4], the Hexosamine is reported as 1445.2 μg/100 mg dry tissue and the “content of hexosamine compared to that of a control group” value is listed as “significantly increased”. The “acute oral toxicity (mortality, clinical symptoms, weight changes, blood tests, autopsy)” value in data set [5] was “not showing toxicity”.
Turning to `COc1ccc2[nH]c([S+]([O-])Cc3ncc(C)c(OC)c3C)nc2c1` (centres unmarked) [omeprazole, reference compound], the “esophagus lesion inhibition ratio” value in data set [1] turned out to be 83%. In data set [2], this molecule had a Sialic acid of 132.2 μg/100 mg dry tissue. Also, in the data set with TNF-α, the inflammation inhibition ratio is reported as 80.5% and the TNF-alpha is 160.2 pg/mg Tissue weight. The “lipid peroxidation inhibiting ratio” value in data set [3] was determined as 53.9%. The Hexosamine in data set [4] was found to be 1176.3 μg/100 mg dry tissue.

The values are drawn from patent US20130310454A1, “PHARMACEUTICAL COMPOSITION COMPRISING EXTRACT OF LONICERA JAPONICA FOR PREVENTION AND TREATMENT OF GASTROESOPHAGEAL REFLUX DISEASE” (priority 2010, published 2013).
